Read-outs that look alike come from different tables or passages of the source.
What was measured:
[1] = test system: Pseudomonas aeruginosa, Staphylococcus aureus, Serratia marcescens, Candida albicans, Fusarium solani; assay: Stand-Alone Procedure for Disinfecting Products, primary performance criteria; assay type: cell-based, bacteria, yeast and mold; conditions: for one hour stand-alone test for bacteria: 1 hr, bacteria only
Method: (§1) This Example illustrates the microbiocidal efficacy of solutions according to the present invention. The antimicrobial efficacy of each of various compositions for the chemical disinfection of contact lenses was evaluated. Microbial challenge inoculums were prepared using Pseudomonas aeruginosa (ATCC 9027), Staphylococcus aureus (ATCC 6538), Serratia marcescens (ATCC 13880), Candida albicans (ATCC 10231), and Fusarium solani (ATCC 36031). The test organisms were cultured on appropriate agar and the cultures were harvested using sterile DPBST (Dulbecco's Phosphate Buffered Saline plus 0.05% w/v polysorbate 80) or a suitable diluent and transferred to a suitable vessel. Spore suspensions were filtered through sterile glass wool to remove hyphal fragments. Serratia marcescens, as appropriate, was filtered (eg., through a 1.2 μ filter) to clarify the suspension. After harvesting, the suspension was centrifuged at no more than 5000× g for a maximum of 30 minutes at 20-25° C. The supernatant was poured off and resuspended in DPBST or other suitable diluent. The suspension was centrifuged a second time, and resuspended in DPBST or other suitable diluent. All challenge bacterial and fungal cell suspensions were adjusted with DPBST or other suitable diluent to 1×10^7 -10^8 cfu/mL. The appropriate cell concentration may be estimated by measuring the turbidity of the suspension, for example using a spectrophotometer at a preselected wavelength, for example 490 nm. One tube was prepared containing a minimum of 10 mL of test solution per challenge organism. Each tube of the solution to be tested was inoculated with a suspension of the test organism sufficient to provide a final count of 1.0×10^5 -10^6 cfu/mL, the volume of the inoculum not exceeding 1% of the sample volume. Dispersion of the inoculum was ensured by vortexing the sample for at least 15 seconds. The inoculated product was stored at 10-25° C. Aliquots in the amount of 1.0 mL were taken of the inoculated product for determination of viable counts after certain time periods of disinfection. The time points for the bacteria were 25, 50, 75, and 100% of the minimum disinfection time. Yeast and mold were tested at an additional timepoint of at least 400% of the minimum disinfection time. The suspension was mixed well by vortexing vigorously for at least 5 second. The 1.0 mL aliquots removed at the specified time intervals were subjected to a suitable series of decimal dilutions in validated neutralizing media. The suspensions were mixed vigorously and incubated for a suitable period of time to allow for neutralization of the microbial agent. The viable count of organisms was determined in appropriate dilutions by preparation of triplicate plates of trypticase soy (TSA) agar for bacteria and Sabouraud dextrose agar (SDA) for mold and yeast. The bacterial recovery plates were incubated at 30-35° C. for 2-4 days. The yeast was incubated at 20-30° C. for 2-4 days and mold recovery plates at 20-25° C. for 3-7 days. The average number of colony forming units was determined on countable plates. Countable plates refer to 30-300 cfu/plates for bacteria and yeast, and 8 to 80 cfu/plate for mold except when colonies are observed only for the 10^0 or 10^-1 dilution plates. The microbial reduction was then calculated at the specified time points. […] Following inoculation in a validated neutralizing broth and incubation for an appropriate period of time, the inoculum control must be between 1.0×10^5 -1.0×10^6 cfu/mL
(§2) The solutions were evaluated based on the performance requirement referred to as the "Stand-Alone Procedure for Disinfecting Products" (hereafter the "stand-alone test") and is based on the Disinfection Efficacy Testing for contact lens care products under the Draft Premarket Notification (510(k)) Guidance Document For Contact Lens Care Products dated Apr. 1, 1996, prepared by the U.S. Food and Drug Administration, Division of Ophthalmic Devices. […]

[2] = test system: Serratia marcescens (ATCC 13880); assay: Antimicrobial efficacy (stand-alone log reduction), S. marcescens; assay type: cell-based; conditions: for log reduction at 4 ppm / log reduction at 1 ppm / log reduction at 2 ppm / log reduction at 3 ppm / log reduction at 5 ppm / log reduction at 4 µg/mL: Serratia marcescens; for log reduction at 4 µg/mL: 4.0 ppm alexidine in ReNu MPS; for Log Reduction S. marcescens: PAPB 0.0
Method: as §1, §2

## CCCCC(CC)CNC(=N)NC(=N)NCCCCCCNC(=N)NC(=N)NCC(CC)CCCC.Cl.Cl (stereo not shown) [Alexidine.2HCl, 1,1 '-hexamethylenebis(5-(2-ethylhexyl)-biguanide) dihydrochloride]
[1]; 1.0 ppm
  one hour stand-alone test for bacteria: will not pass the one hour stand-alone test for bacteria
[1]; 2.0 ppm
  one hour stand-alone test for bacteria: passes the one hour stand-alone test for bacteria
[1]; 4.0 ppm alexidine in ReNu MPS
  one hour stand-alone test: passed the one hour stand-alone test
[1]; 4.0 ppm, Example 6, 30, 45, 60 min, no rub or rinse
  stand-alone test: able to pass a stand-alone test (with no rub or rinse) at the 30 minute time point, 45 time point and the 60 minute time point
[1]; 4.0 ppm, Example 7, 30, 45, 60 min
  stand-alone test: passed the stand alone test at 30 minutes, 45 minutes, and 60 minutes
[1]; 4.0 ppm, Example 7, 15 min, with respect to Serratia marcescens and Candida albicans
  stand-alone test: only just passed the 15 minute stand-alone test
[1]; 4.0 ppm, Example 8, 30, 45, 60 min, without rubbing
  stand-alone test: passed the stand-alone test (without rubbing) at 30 minutes, 45 minutes, and 60 minutes
[1]; 4.0 ppm, Example 8, 15 min, without rubbing
  stand-alone test: did not pass the test at 15 minutes
[1]; 4.0 ppm, Tables 3, 4 and 5
  time required to pass a stand-alone procedure without rubbing: at least 30 minutes
[2]; ATCC13880, 2.5 min, 4.0 ppm, aged 18 months, Exp. 1, 2.5 min, read-out: Log Reduction
  log reduction at 4 ppm: 0.5
[2]; ATCC13880, 2.5 min, 4.0 ppm, aged 18 months, Exp. 2, 2.5 min, read-out: Log Reduction
  log reduction at 4 ppm: 0.8
[2]; ATCC13880, 2.5 min, 4.0 ppm, aged 18 months, Exp. 3, 2.5 min, read-out: Log Reduction
  log reduction at 4 ppm: 0.8
[2]; ATCC13880, 5 min
  log reduction at 4 ppm: 0.6
[2]; ATCC13880, 5 min, 1.0 ppm, read-out: Log Reduction at 5 Minutes
  log reduction at 1 ppm: 0.5
[2]; ATCC13880, 5 min, 2.0 ppm, read-out: Log Reduction at 5 Minutes
  log reduction at 2 ppm: 0.8
[2]; ATCC13880, 5 min, 3.0 ppm, read-out: Log Reduction at 5 Minutes
  log reduction at 3 ppm: 1.1
[2]; ATCC13880, 5 min, 4.0 ppm, aged 18 months, Exp. 2, 5.0 min, read-out: Log Reduction
  log reduction at 4 ppm: 2
[2]; ATCC13880, 5 min, 4.0 ppm, aged 18 months, Exp. 3, 5.0 min, read-out: Log Reduction
  log reduction at 4 ppm: 2
[2]; ATCC13880, 5 min, 4.0 ppm, read-out: Log Reduction at 5 Minutes
  log reduction at 4 ppm: 2
[2]; ATCC13880, 5 min, 5.0 ppm, read-out: Log Reduction at 5 Minutes
  log reduction at 5 ppm: 2.9
[2]; ATCC13880, 0.125 h, 4.0 ppm, aged 18 months, Exp. 1, 7.5 min, read-out: Log Reduction
  log reduction at 4 ppm: 0.9
[2]; ATCC13880, 0.125 h, 4.0 ppm, aged 18 months, Exp. 2, 7.5 min, read-out: Log Reduction
  log reduction at 4 ppm: 2.8
[2]; ATCC13880, 0.125 h, 4.0 ppm, aged 18 months, Exp. 3, 7.5 min, read-out: Log Reduction
  log reduction at 4 ppm: 2.2
[2]; ATCC13880, 10 min
  log reduction at 4 ppm: 1.2
[2]; ATCC13880, 10 min, 1.0 ppm, read-out: Log Reduction at 10 Minutes
  log reduction at 1 ppm: 0.7
[2]; ATCC13880, 10 min, 2.0 ppm, read-out: Log Reduction at 10 Minutes
  log reduction at 2 ppm: 1.8
[2]; ATCC13880, 10 min, 3.0 ppm, read-out: Log Reduction at 10 Minutes
  log reduction at 3 ppm: 2.6
[2]; ATCC13880, 10 min, 4.0 ppm, aged 18 months, Exp. 2, 10.0 min, read-out: Log Reduction
  log reduction at 4 ppm: 2.8
[2]; ATCC13880, 10 min, 4.0 ppm, aged 18 months, Exp. 3, 10.0 min, read-out: Log Reduction
  log reduction at 4 ppm: 2.2
[2]; ATCC13880, 10 min, 4.0 ppm, read-out: Log Reduction at 10 Minutes
  log reduction at 4 ppm: > 4.8
[2]; ATCC13880, 10 min, 5.0 ppm, read-out: Log Reduction at 10 Minutes
  log reduction at 5 ppm: > 4.8
[2]; ATCC13880, 0.25 h
  log reduction at 4 ppm: 3
[2]; ATCC13880, 0.25 h, 4.0 ppm, Ex. 6, aged 19 months at 25 °C, 15 min, read-out: Log Reduction
  log reduction at 4 ppm: 3.2
[2]; ATCC13880, 0.25 h, 4.0 ppm, Ex. 8, different batch aged 19 months at 25 °C, 15 min, read-out: Log Reduction
  log reduction at 4 ppm: 2.5
[2]; ATCC13880, 0.5 h, 4.0 ppm, Ex. 6, aged 19 months at 25 °C, 30 min, read-out: Log Reduction
  log reduction at 4 ppm: > 4.7
[2]; ATCC13880, 0.5 h, 4.0 ppm, Ex. 7, different lot aged 18 months, 30 min, read-out: Log Reduction
  log reduction at 4 ppm: 4.7
[2]; ATCC13880, 0.5 h, 4.0 ppm, Ex. 8, different batch aged 19 months at 25 °C, 30 min, read-out: Log Reduction
  log reduction at 4 ppm: 4.6
[2]; ATCC13880, 0.75 h, 4.0 ppm, Ex. 6, aged 19 months at 25 °C, 45 min, read-out: Log Reduction
  log reduction at 4 ppm: > 4.7
[2]; ATCC13880, 0.75 h, 4.0 ppm, Ex. 7, different lot aged 18 months, 45 min, read-out: Log Reduction
  log reduction at 4 ppm: > 4.8
[2]; ATCC13880, 0.75 h, 4.0 ppm, Ex. 8, different batch aged 19 months at 25 °C, 45 min, read-out: Log Reduction
  log reduction at 4 ppm: > 4.7
[2]; ATCC13880, 1 h, 1 ppm, 1 hr, read-out: Log Reduction
  log reduction at 1 ppm: 3.5
[2]; ATCC13880, 1 h, 2 ppm, 1 hr, read-out: Log Reduction
  log reduction at 2 ppm: > 4.8
[2]; ATCC13880, 1 h, 3 ppm, 1 hr, read-out: Log Reduction
  log reduction at 3 ppm: > 4.8
[2]; ATCC13880, 1 h, 1 hr
  log reduction at 4 µg/mL: 3.7
[2]; ATCC13880, 1 h, 4 ppm, 1 hr, read-out: Log Reduction
  log reduction at 4 ppm: > 4.8
[2]; ATCC13880, 1 h, 4.0 ppm, Ex. 6, aged 19 months at 25 °C, 60 min, read-out: Log Reduction
  log reduction at 4 ppm: > 4.7
[2]; ATCC13880, 1 h, 4.0 ppm, Ex. 7, different lot aged 18 months, 60 min, read-out: Log Reduction
  log reduction at 4 ppm: > 4.8
[2]; ATCC13880, 1 h, 4.0 ppm, Ex. 8, different batch aged 19 months at 25 °C, 60 min, read-out: Log Reduction
  log reduction at 4 ppm: > 4.7
[2]; ATCC13880, 1 h, 5 ppm, 1 hr, read-out: Log Reduction
  log reduction at 5 ppm: > 4.8
[2]; ATCC13880, 2 h, 2 hr
  log reduction at 4 µg/mL: > 4.7
[2]; ATCC13880, 3 h, 3 hr
  log reduction at 4 µg/mL: > 4.7
[2]; ATCC13880, 4 h, 4 hr
  log reduction at 4 µg/mL: > 4.7
[2]; alexidine 0.5 ppm, 15 min
  Log Reduction S. marcescens: 0.6 log
[2]; alexidine 0.5 ppm, 30 min
  Log Reduction S. marcescens: 1.6 log
[2]; alexidine 0.5 ppm, 60 min
  Log Reduction S. marcescens: 2.5 log
[2]; alexidine 2.6 ppm, 15 min
  Log Reduction S. marcescens: 2.2 log
[2]; alexidine 2.6 ppm, 30 min
  Log Reduction S. marcescens: > 4.3 log
[2]; alexidine 2.6 ppm, 60 min
  Log Reduction S. marcescens: > 4.3 log

From patent publication US5965088A, “Method for providing rapid disinfection of contact lenses” (priority 1997, dated 1999)
